This is an account of results in patent US9676714B2, “Sulfonylindole derivatives and method for preparing the same” (Daewoong Pharmaceutical Co., Ltd., priority 2013, dated 2017).

The target in the assay is T1, proton pump (H+/K+-ATPase) (Sus scrofa, UniProt P19156).
T1 construct: Gastric vesicles were prepared from hog stomach via centrifugal separation; from tissue; host or cells: hog stomach (gastric vesicles, method of Rabon et al. 1988)
The assay can be described thus: Measurement of inhibitory effects on proton pump (H+/K+-ATPase) activities. Type of assay: biochemical. As to conditions: hog gastric vesicles, K+-specific H+/K+-ATPase activity, Tris-HCl buffer pH 7.4, 37° C. for 40 minutes, malachite green Pi readout. The essentials:
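Hog gastric vesicles in 60 mmol/l Tris-HCl pH 7.4 with 0.5% DMSO were treated with compounds at room temperature; reaction was started with 10 μl of 10 mmol/l ATP stock. Released Pi was read at 570 nm, K+-specific activity taken as the ±K+ difference. IC50 from 4-parameter logistic fit.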

Structures can show the parent of a compound that is named as a salt.

T1 sequence (P19156 whole entry): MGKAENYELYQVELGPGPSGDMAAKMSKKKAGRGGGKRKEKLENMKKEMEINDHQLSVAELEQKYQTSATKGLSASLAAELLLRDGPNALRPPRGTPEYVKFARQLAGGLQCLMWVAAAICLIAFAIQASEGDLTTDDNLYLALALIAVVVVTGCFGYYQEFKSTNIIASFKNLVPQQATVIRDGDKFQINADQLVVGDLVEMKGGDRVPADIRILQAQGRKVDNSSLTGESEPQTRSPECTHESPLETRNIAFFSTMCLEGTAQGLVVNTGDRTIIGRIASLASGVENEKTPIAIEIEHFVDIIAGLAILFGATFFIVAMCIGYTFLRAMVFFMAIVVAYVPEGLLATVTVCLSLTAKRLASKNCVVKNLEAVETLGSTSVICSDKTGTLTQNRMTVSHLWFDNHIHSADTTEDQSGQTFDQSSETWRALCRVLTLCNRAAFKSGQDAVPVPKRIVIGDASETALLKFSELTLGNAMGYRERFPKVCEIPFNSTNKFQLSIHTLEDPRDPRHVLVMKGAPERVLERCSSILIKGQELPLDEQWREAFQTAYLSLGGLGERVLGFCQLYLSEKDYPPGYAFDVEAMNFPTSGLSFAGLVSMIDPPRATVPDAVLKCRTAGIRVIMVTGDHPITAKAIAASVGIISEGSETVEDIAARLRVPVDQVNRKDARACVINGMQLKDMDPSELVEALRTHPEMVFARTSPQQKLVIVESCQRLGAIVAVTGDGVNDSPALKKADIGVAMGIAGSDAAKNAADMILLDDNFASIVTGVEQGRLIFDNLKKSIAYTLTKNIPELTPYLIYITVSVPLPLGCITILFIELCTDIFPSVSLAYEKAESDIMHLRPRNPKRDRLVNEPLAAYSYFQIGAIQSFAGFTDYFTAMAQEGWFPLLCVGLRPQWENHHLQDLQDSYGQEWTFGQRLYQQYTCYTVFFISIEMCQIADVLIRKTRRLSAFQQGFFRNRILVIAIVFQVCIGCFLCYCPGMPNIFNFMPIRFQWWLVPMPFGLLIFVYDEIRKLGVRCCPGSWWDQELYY
T1 sequence (P18434 whole entry partner): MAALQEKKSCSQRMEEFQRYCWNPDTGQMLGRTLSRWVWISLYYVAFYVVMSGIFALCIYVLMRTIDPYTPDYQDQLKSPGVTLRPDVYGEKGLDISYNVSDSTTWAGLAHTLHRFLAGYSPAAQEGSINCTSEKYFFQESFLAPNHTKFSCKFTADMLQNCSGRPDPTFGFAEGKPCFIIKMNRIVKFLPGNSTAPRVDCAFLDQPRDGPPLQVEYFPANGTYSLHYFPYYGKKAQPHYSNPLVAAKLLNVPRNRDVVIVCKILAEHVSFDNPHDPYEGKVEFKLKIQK

`CNCc1cn(S(=O)(=O)c2cccc(OC(F)(F)F)c2)c2cc(Nc3ccc(OC)cc3F)ccc12` [Example 199, N-(2-fluoro-4-methoxyphenyl)-3-(methylamino)methyl)-1-((3-(trifluoromethoxy)phenyl)sulfonyl)-1H-indol-6-amine hydrochloride]: inhibition was half-maximal at 340 nM (IC50). `CNCc1cn(S(=O)(=O)c2cccc(OC(F)(F)F)c2)c2cc(Nc3ccc(OC(F)(F)F)cc3C)ccc12` [Example 200, N-(2-methyl-4-(trifluoromethoxy)phenyl)-3-((methylamino)methyl)-1-((3-(trifluoromethoxy)phenyl)sulfonyl)-1H-indol-6-amine hydrochloride]: the IC50 worked out at 900 nM.

As for `CNCc1cn(S(=O)(=O)c2cccc(OC(F)(F)F)c2)c2cc(Nc3ccc(OC(F)(F)F)cc3Cl)ccc12` [Example 201, N-(2-chloro-4-(trifluoromethoxy)phenyl)-3-((methylamino)methyl)-1-((3-(trifluoromethoxy)phenyl)sulfonyl)-1H-indol-6-amine hydrochloride], half-maximal inhibition (IC50) was put at 660 nM. Regarding `CNCc1cn(S(=O)(=O)c2cccc(OC(F)(F)F)c2)c2cc(Nc3ccc(OC(F)(F)F)cc3OC)ccc12` [Example 202, N-(2-methoxy-4-(trifluoromethoxy)phenyl)-3-((methylamino)methyl)-1-((3-(trifluoromethoxy)phenyl)sulfonyl)-1H-indol-6-amine hydrochloride], 580 nM corresponded to half-maximal inhibition (IC50). Next, `CNCc1cn(S(=O)(=O)c2cccc(OC(F)(F)F)c2)c2cc(Nc3ccc(C)c(F)c3F)ccc12` [Example 203, N-(2,3-difluoro-4-methylphenyl)-3-((methylamino)methyl)-1-((3-(trifluoromethoxy)phenyl)sulfonyl)-1H-indol-6-amine hydrochloride]: 450 nM.

For `CNCc1cn(S(=O)(=O)c2cccc(OC(F)(F)F)c2)c2cc(Nc3ccc(C)nc3F)ccc12` [Example 204, N-(2-fluoro-6-methylpyridin-3-yl)-3-((methylamino)methyl)-1-((3-(trifluoromethoxy)phenyl)sulfonyl)-1H-indol-6-amine hydrochloride], 500 nM corresponded to half-maximal inhibition (IC50). `CNCc1cn(S(=O)(=O)c2cccc(OC(F)(F)F)c2)c2cc(Nc3ccc(C)nc3Cl)ccc12` [Example 205, N-(2-chloro-6-methylpyridin-3-yl)-3-((methylamino)methyl)-1-((3-(trifluoromethoxy)phenyl)sulfonyl)-1H-indol-6-amine hydrochloride] had an IC50 of 1750 nM.

As for `CNCc1cn(S(=O)(=O)c2ccc(OC(F)(F)F)cc2)c2cc(Nc3ccc(C)cc3F)ccc12` [Example 206, N-(2-fluoro-4-methylphenyl)-3-((methylamino)methyl)-1-((4-(trifluoromethoxy)phenyl)sulfonyl)-1H-indol-6-amine hydrochloride], half-maximal inhibition (IC50) was put at 2550 nM. `CNCc1cn(S(=O)(=O)c2ccc(OC(F)(F)F)cc2)c2cc(Nc3ccc(C)cc3Cl)ccc12` [Example 207, N-(2-chloro-4-methylphenyl)-3-((methylamino)methyl)-1-((4-(trifluoromethoxy)phenyl)sulfonyl)-1H-indol-6-amine hydrochloride] displayed an IC50 of 550 nM.

As to `CNCc1cn(S(=O)(=O)c2ccc(OC(F)(F)F)cc2)c2cc(Nc3ccc(OC(F)(F)F)cc3C)ccc12` [Example 209, N-(2-methyl-4-(trifluoromethoxy)phenyl)-3-((methylamino)methyl)1-((4-(trifluoromethoxy)phenyl)sulfonyl)-1H-indol-6-amine hydrochloride], it took 1060 nM to reach half-maximal inhibition (IC50).

As to `CNCc1cn(S(=O)(=O)c2cncc(F)c2)c2cc(Nc3ccc(OC(F)(F)F)cc3Cl)ccc12` [Example 215, N-(2-chloro-4-(trifluoromethoxy)phenyl)-1-((5-fluoropyridin-3-yl)sulfonyl)-3-((methylamino)methyl)-1H-indol-6-amine hydrochloride], the IC50 came out at 820 nM.

In turn, `CNCc1cn(S(=O)(=O)c2ccc(OC)cc2)c2cc(Nc3ccc(C)cc3Cl)ccc12` [Example 219, N-(2-chloro-4-methylphenyl)-1-((4-methoxyphenyl)sulfonyl)-3-((methylamino)methyl)-1H-indol-6-amine hydrochloride] came in with an IC50 of 270 nM.

With `CNCc1cn(S(=O)(=O)c2ccc(OC(F)F)cc2)c2cc(Nc3ccc(C)cc3Cl)ccc12` [Example 220, N-(2-chloro-4-methylphenyl)-1-((4-(difluoromethoxy)phenyl)sulfonyl)-3-((methylamino)methyl)-1H-indol-6-amine hydrochloride], the half-inhibitory concentration (IC50) is 290 nM.

`CNCc1cn(S(=O)(=O)c2ccc(C(F)(F)F)cc2)c2cc(Nc3ccc(C)cc3Cl)ccc12` [Example 221, N-(2-chloro-4-methylphenyl)-3-((methylamino)methyl)-1-((4-(trifluoromethyl)phenyl)sulfonyl)-1H-indol-6-amine hydrochloride]: the half-inhibitory concentration (IC50) turned out to be 1580 nM. In turn, `CNCc1cn(S(=O)(=O)c2ccccc2)c2cc(Nc3ccc(C)cc3F)ccc12` [Example 222, N-(2-fluoro-4-methylphenyl)-3-((methylamino)methyl)-1-(phenylsulfonyl)-1H-indol-6-amine hydrochloride] registered an IC50 of 1840 nM.

Turning to `CNCc1cn(S(=O)(=O)c2ccccc2C)c2cc(Nc3ccc(C)cc3F)ccc12` [Example 223, N-(2-fluoro-4-methylphenyl)-3-((methylamino)methyl)-1-(o-tolylsulfonyl)-1H-indol-6-amine hydrochloride], the IC50 came out at 1290 nM. In turn, `CNCc1cn(S(=O)(=O)c2ccccc2F)c2cc(Nc3ccc(C)cc3F)ccc12` [Example 224, N-(2-fluoro-4-methylphenyl)-1-((2-fluorophenyl)sulfonyl)-3-((methylamino)methyl)-1H-indol-6-amine hydrochloride] showed a half-maximal inhibitory concentration (IC50) of 3300 nM. Next, `CNCc1cn(S(=O)(=O)c2ccccc2Cl)c2cc(Nc3ccc(C)cc3F)ccc12` [Example 225, 1-((2-chlorophenyl)sulfonyl)-N-(2-fluoro-4-methylphenyl)-3-((methylamino)methyl)-1H-indol-6-amine hydrochloride]: 2060 nM; `CNCc1cn(S(=O)(=O)c2cccc(C#N)c2)c2cc(Nc3ccc(C)cc3F)ccc12` [Example 227, 3-((6-((2-fluoro-4-methylphenyl)amino)-3-((methylamino)methyl)-1H-indol-1-yl)sulfonyl)benzonitrile hydrochloride]: 6490 nM; `CNCc1cn(S(=O)(=O)c2cccc(Br)c2)c2cc(Nc3ccc(C)cc3F)ccc12` [Example 228, 1-((3-bromophenyl)sulfonyl)-N-(2-fluoro-4-methylphenyl)-3-((methylamino)methyl)-1H-indol-6-amine hydrochloride]: 900 nM.

`CNCc1cn(S(=O)(=O)c2ccc(C)cc2)c2cc(Nc3ccc(C)cc3F)ccc12` [Example 229, N-(2-fluoro-4-methylphenyl)-3-((methylamino)methyl)-1-tosyl-1H-indol-6-amine hydrochloride] returned an IC50 of 1110 nM. The molecule `CNCc1cn(S(=O)(=O)c2ccc(Cl)cc2)c2cc(Nc3ccc(C)cc3F)ccc12` [Example 230, 1-((4-chlorophenyl)sulfonyl)-N-(2-fluoro-4-methylphenyl)-3-((methylamino)methyl)-1H-indol-6-amine hydrochloride] yielded an IC50 of 910 nM. Molecule `CNCc1cn(S(=O)(=O)c2ccc(C(C)(C)C)cc2)c2cc(Nc3ccc(C)cc3F)ccc12` [Example 231, 1-((4-(tert-butyl)phenyl)sulfonyl)-N-(2-fluoro-4-methylphenyl)-3-((methylamino)methyl)-1H-indol-6-amine hydrochloride] yielded an IC50 of 2620 nM. As for `CNCc1cn(S(=O)(=O)c2ccc(-c3ccccc3)cc2)c2cc(Nc3ccc(C)cc3F)ccc12` [Example 232, 1-([1,1′-biphenyl]-4-ylsulfonyl)-N-(2-fluoro-4-methylphenyl)-3-((methylamino)methyl)-1H-indol-6-amine hydrochloride], inhibition was half-maximal at 2150 nM (IC50). Next, `CNCc1cn(S(=O)(=O)c2cccc3ccccc23)c2cc(Nc3ccc(C)cc3F)ccc12` [Example 233, N-(2-fluoro-4-methylphenyl)-3-((methylamino)methyl)-1-(naphthalen-1-ylsulfonyl)-1H-indol-6-amine hydrochloride]: 2850 nM.

`CNCc1cn(S(=O)(=O)c2cccc(Cl)c2Cl)c2cc(Nc3ccc(C)cc3F)ccc12` [Example 234, 1-((2,3-dichlorophenyl)sulfonyl)-N-(2-fluoro-4-methylphenyl)-3-((methylamino)methyl)-1H-indol-6-amine hydrochloride]: the IC50 stood at 1470 nM.

For the molecule `CNCc1cn(S(=O)(=O)c2ccc(Cl)cc2Cl)c2cc(Nc3ccc(C)cc3F)ccc12` [Example 235, 1-((2,4-dichlorophenyl)sulfonyl)-N-(2-fluoro-4-methylphenyl)-3-((methylamino)methyl)-1H-indol-6-amine hydrochloride], the midpoint of inhibition, the IC50, lay at 2890 nM. Molecule `CNCc1cn(S(=O)(=O)c2cc(C)ccc2C)c2cc(Nc3ccc(C)cc3F)ccc12` [Example 236, 1-((2,5-dimethylphenyl)sulfonyl)-N-(2-fluoro-4-methylphenyl)-3-((methylamino)methyl)-1H-indol-6-amine hydrochloride] had an IC50 of 2040 nM. In the case of `CNCc1cn(S(=O)(=O)c2ccc(F)c(F)c2)c2cc(Nc3ccc(C)cc3F)ccc12` [Example 237, 1-((3,4-difluorophenyl)sulfonyl)-N-(2-fluoro-4-methylphenyl)-3-((methylamino)methyl)-1H-indol-6-amine hydrochloride], the IC50 was 990 nM. As for `CNCc1cn(S(=O)(=O)c2ccc(Cl)c(Cl)c2)c2cc(Nc3ccc(C)cc3F)ccc12` [Example 238, 1-((3,4-dichlorophenyl)sulfonyl)-N-(2-fluoro-4-methylphenyl)-3-((methylamino)methyl)-1H-indol-6-amine hydrochloride], the IC50 is 2560 nM.

Broadly, the IC50 is the midpoint of a concentration-inhibition curve. Read a high IC50 as lower potency.
